Experimental data from PMC10313368 (The Journal of Clinical Investigation, 2023).
Where “and” joins values, the source holds several entries; their conditions need not be identical. Equal entries are not always repeated. Residues, ends and D or L forms follow the SMILES beside them. *: point of attachment. Cbz = O=C(OCc1ccccc1)*

Tests used:
HIF-1α = HIF-1α (Homo sapiens, UniProt Q16665); experiment: Immunoblot of HIF-1α accumulation in MIO-M1 cells cultured in hypoxia; type: cell-based; set-up: endogenous in cells; host or cells: MIO-M1; conditions: MIO-M1, hypoxia 4 hours; MG-132 10 μM, bortezomib 10 μM, bafilomycin 10 nM
Protocol: (§1) MIO-M1, HUVECs, and ARPE19 cells were cultured in DMEM with 10% (vol/vol) FBS (Quality Biological) and 1% penicillin/streptomycin (Cellgro). A hypoxic chamber (Coy Laboratory Product Inc.; Two Glove Model) with 5% CO2, 94% N2, and 1% O2 gas concentration at 37°C was used to culture hypoxic cells. The control cells were cultured in an incubator maintained at 37°C, with 21% O2 and 5% CO2. […] Aflibercept was obtained from the Johns Hopkins University Pharmacy.
(§2) Immunoblot assays. Cells, neurosensory retina, and D120 retinal organoid lysates were subjected
(§3) to 4–15% gradient SDS/PAGE (Invitrogen). Immunoblot (Western blot or WB) assays were
(§4) performed as previously described (1). […]

HIF-2α = HIF-2α (Homo sapiens, UniProt Q99814); experiment: Immunoblot of HIF-2α accumulation in MIO-M1 cells cultured in hypoxia; type: cell-based; set-up: endogenous in cells; host or cells: MIO-M1; conditions: MIO-M1, hypoxia 4 hours; MG-132
Protocol: as §1, §2, §3, §4

OIR mice = experiment: Retinal NV in the oxygen-induced retinopathy (OIR) mouse model; type: in vivo; conditions: for OIR NV%: Figure 14D
Description: To characterize the contribution of these other HIF-regulated angiogenic factors to the promotion of ischemia-driven retinal NV in vivo, we used the classic oxygen-induced retinopathy (OIR) model characterized by Smith and colleagues ([35]). In stage 1 of this model, P7 pups are exposed to hyperoxia (75% O2) for 5 consecutive days (P7–P12), resulting in obliteration of the posterior retinal vasculature. In stage 2, pups (at P12) are returned to room air (21% O2). The resulting relative ischemia promotes the expression of angiogenic mediators that stimulate the development of retinal NV (peaking at P17; Figure 2A). […]
(§5) Animal studies. Eight-week-old pathogen-free female C57BL/6 mice were obtained from The Jackson Laboratory (JAX). Timed pregnant C57BL/6 mice were obtained from Charles River Laboratories. Mice heterozygous for HIF-1α have been previously described (2). Mice heterozygous for HIF-2α (strain number: 003266; common name: EPAS1 KO) were purchased […]
(§6) OIR mouse model. OIR experiments were performed as previously described (1, 3). Briefly, C57BL/6 mice were placed in 75% O2 on P7. On P12, the mice were returned to room air and were […]
(§7) (or vehicle) by intravitreal injection. Mice with body weight less than 6 g at P17 were excluded […]
(§8) from analysis. Data were collected from both males and females and the results were combined since there was no apparent difference between sexes. Representative images for selected time points from a minimum of three independent experiments are shown. Data from 3-8 pups were obtained at each time point. […]
(§9) Intraperitoneal (IP) injections. […]
(§10) intraperitoneally using an insulin syringe in OIR pups. […]
(§11) the peritoneal cavity of neonatal C57BL/6 mice and STZ mice at indicated times, and the retinal vasculature and lysates for WB and qPCR were assessed at P17.
(§12) Intraocular injections. Intravitreal injections were performed with a PLI-100A Pico-liter Microinjector (Warner Instruments, Harvard Bioscience) using pulled-glass micropipettes. Each micropipette was calibrated to deliver a 1 μl volume on depression of a foot switch. The mice were anesthetized with a ketamine (100 mg/kg) and xylazine (5mg/kg) mixture, and under a dissecting microscope, the sharpened tip of the micropipette was passed through the sclera just posterior to the limbus into the vitreous cavity and the foot switch was depressed, which caused fluid to […]
penetrate into the vitreous space. […]
mice for vascular permeability test, retinal vasculature, and lysates for WB and qPCR analysis.
Immunoﬂuorescence assays. Details for antibodies are provided in Supplemental Table 1.
Immunofluorescence assays in retinal organoids and mouse retinal tissues were performed as previously described (4). Briefly, mice were sacrificed using CO2 asphyxiation, and the eyes were enucleated and fixed with a solution of 4% paraformaldehyde in PBS (Thermo Scientific™) for two hours at RT, followed by washing with PBS for 10 minutes in a shaker. Retinas were isolated and incubated in 0.5% BSA solution overnight at 4 °C. Retinas were then washed with PBS 3 times for 10 minutes in the shaker and stained with isolectin B4 (Invitrogen; 1:200 dilution in PBS) overnight at 4 °C. After washing 3 times for 10 minutes each in the shaker, the retinas were mounted. Images were captured with Zeiss fluorescent microscope. Eight fields per eye (2 fields per petal) including area of neovascularization were selected and fluorescence intensity was measured by ImageJ software. […]
The eyes were enucleated and immediately immersed in 4% (wt/vol) paraformaldehyde for 2 hours at room temperature. Retinas were isolated and wholemounts prepared on clean glass slides and mounted vitreous side up under coverslips with antifade medium (Vectashield; Vector Laboratories, Burlingame, CA). Images were captured by Zeiss fluorescent microscope or confocal microscopy and fluorescence was quantified by the image J software (National Institutes

[1] = test system: HIF-regulated angiogenic mediators; experiment: mRNA expression of HIF-regulated vasoactive mediators in OIR mouse retina (qPCR); type: in vivo
Protocol: (§13) Reverse transcription and quantitative real-time PCR. Total RNA was isolated from cultured cells or retinas with PureLinkTM RNA Mini Kit (Invitrogen #12183025), and cDNA was prepared with MuLV Reverse Transcriptase (Applied Biosystems). Quantitative real-time PCR was performed with Power SYBR Green PCR Master Mix (Applied Biosystems) and MyiQ Real-Time PCR Detection System (Bio-Rad). Normalization was done using cyclophilin A for mouse tissue and human cell lines. Primers are listed in Supplemental Table 2. […]
as §5, §6, §7, §8, §9, §10, §11, §12

[2] = test system: HIF-regulated vasoactive mediators; experiment: mRNA expression of HIF-regulated vasoactive mediators in retina of STZ-induced diabetic mice (qPCR); type: in vivo, mouse
Protocol: as §13
STZ-induced diabetes mouse model. 8-to-10 week-old male mice received an IP injection of STZ at 40 mg/kg of body weight in 0.1M of citrate buffer (pH 4.5) for 5 consecutive days. Normal chow and 10% sucrose water were provided during this period. 10% sucrose was discontinued and replaced with regular water on experimental day 6. Blood glucose was measured on experimental day 28 after 16 hours fasting and mice with blood glucose level > 250 mg/dL were considered […]
as §9

[3] = test system: STZ-induced diabetic mice; experiment: Vascular permeability by Evans blue tracer method in STZ mice; type: in vivo, mouse; conditions: digoxin treatment, mice hyperglycemic for 6 months
Protocol: STZ-induced diabetes mouse model. 8-to-10 week-old male mice received an IP injection of STZ at 40 mg/kg of body weight in 0.1M of citrate buffer (pH 4.5) for 5 consecutive days. Normal chow and 10% sucrose water were provided during this period. 10% sucrose was discontinued and replaced with regular water on experimental day 6. […]
Intraocular injections. Intravitreal injections were performed with a PLI-100A Pico-liter Microinjector (Warner Instruments, Harvard Bioscience) using pulled-glass micropipettes. Each micropipette was calibrated to deliver a 1 μl volume on depression of a foot switch. […]
Images were captured with Zeiss fluorescent microscope. Eight fields per eye (2 fields per petal) including area of neovascularization were selected and fluorescence intensity was measured by ImageJ software. […]
The eyes were enucleated and immediately immersed in 4% (wt/vol) paraformaldehyde for 2 hours at room temperature. […] Images were captured by Zeiss fluorescent microscope or confocal microscopy and fluorescence was quantified by the image J software (National Institutes […]
of Health, Bethesda, MD). Blinded quantification of the number of leaking vessels was performed by manual counting of major leakage from capillaries from retinas of each group. […] Random fields were chosen from retinas where leakages were absent to determine baseline fluorescence that arise from capillaries. […]

[4] = OIR mice P17, Digoxin i.p. 2mg/kg at P12, NON-OIR about 1, replicates, Figure 2C, 2 mg/kg
[5] = digoxin 2 mg/kg i.p. at P12, P17
[6] = STZ mice + Digoxin, control about 1, replicates, Figure 4F

Sequence of HIF-1α (Q16665 whole entry): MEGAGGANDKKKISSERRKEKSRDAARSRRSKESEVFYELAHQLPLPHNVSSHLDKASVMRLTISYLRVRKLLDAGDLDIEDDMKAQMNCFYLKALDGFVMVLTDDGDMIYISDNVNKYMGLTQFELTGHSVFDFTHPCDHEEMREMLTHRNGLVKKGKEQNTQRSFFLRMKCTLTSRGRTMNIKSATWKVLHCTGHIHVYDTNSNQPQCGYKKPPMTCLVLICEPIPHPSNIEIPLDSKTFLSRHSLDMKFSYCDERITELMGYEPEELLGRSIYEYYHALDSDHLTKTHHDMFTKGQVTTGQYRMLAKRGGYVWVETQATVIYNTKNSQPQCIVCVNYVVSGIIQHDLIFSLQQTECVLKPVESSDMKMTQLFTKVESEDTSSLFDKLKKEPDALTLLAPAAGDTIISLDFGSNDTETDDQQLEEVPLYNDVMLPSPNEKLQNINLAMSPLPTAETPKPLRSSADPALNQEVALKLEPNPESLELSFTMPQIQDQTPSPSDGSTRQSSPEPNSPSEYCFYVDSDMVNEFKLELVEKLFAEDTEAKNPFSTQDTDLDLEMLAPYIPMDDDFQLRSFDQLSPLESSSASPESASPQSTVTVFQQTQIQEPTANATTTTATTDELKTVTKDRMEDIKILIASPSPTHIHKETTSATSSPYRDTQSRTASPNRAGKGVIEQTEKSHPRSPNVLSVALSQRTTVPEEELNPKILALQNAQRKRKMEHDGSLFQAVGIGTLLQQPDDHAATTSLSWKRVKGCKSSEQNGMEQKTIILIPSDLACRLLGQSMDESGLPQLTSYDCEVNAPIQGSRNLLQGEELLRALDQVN
Sequence of HIF-2α (Q99814 whole entry): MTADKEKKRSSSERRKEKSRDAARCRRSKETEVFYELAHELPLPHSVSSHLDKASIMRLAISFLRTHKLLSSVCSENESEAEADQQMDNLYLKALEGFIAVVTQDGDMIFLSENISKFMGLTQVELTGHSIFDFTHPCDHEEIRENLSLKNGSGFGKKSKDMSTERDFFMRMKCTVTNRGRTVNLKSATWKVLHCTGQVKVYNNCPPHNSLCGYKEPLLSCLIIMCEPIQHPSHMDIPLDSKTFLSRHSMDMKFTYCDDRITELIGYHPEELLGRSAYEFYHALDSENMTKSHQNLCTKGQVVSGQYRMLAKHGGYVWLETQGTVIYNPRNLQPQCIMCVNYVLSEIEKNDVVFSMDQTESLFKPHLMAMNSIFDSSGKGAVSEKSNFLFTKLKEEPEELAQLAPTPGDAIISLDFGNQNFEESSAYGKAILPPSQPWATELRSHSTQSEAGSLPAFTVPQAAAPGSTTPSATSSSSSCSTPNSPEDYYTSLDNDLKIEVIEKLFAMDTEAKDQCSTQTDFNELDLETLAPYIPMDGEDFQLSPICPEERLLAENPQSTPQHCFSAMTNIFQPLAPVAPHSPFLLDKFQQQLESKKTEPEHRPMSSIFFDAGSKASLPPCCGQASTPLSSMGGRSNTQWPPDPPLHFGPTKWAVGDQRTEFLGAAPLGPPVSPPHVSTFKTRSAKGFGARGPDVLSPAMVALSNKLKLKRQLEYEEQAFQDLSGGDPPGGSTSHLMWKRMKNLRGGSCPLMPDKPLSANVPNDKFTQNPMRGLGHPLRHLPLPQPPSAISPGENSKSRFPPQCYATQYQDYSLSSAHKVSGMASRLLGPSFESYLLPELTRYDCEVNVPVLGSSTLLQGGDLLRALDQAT

CO/C1=C\C(C)=C\[C@@H](C)[C@@H](O)[C@@H](C)C/C(C)=C/C=C/[C@H](OC)[C@@H]([C@@H](C)[C@@H](O)[C@H](C)[C@@]2(O)C[C@@H](O)[C@H](C)[C@@H](C(C)C)O2)OC1=O [bafilomycin, reference compound]
effect of pretreatment on 32-134D inhibition of HIF-1α accumulation (HIF-1α): did not prevent 32-134D from inhibiting HIF-1α accumulation

CC(C)C[C@@H](C=O)NC(=O)[C@H](CC(C)C)NC(=O)[C@H](CC(C)C)NC(=O)OCc1ccccc1 [MG-132, reference compound] (Cbz-Leu-Leu-Leu-aldehyde)
effect of pretreatment on 32-134D inhibition of HIF-1α accumulation (HIF-1α): prevented the ability of 32-134D to block HIF-1α and HIF-2α protein accumulation
effect of pretreatment on 32-134D inhibition of HIF-2α accumulation (HIF-2α): prevented the ability of 32-134D to block HIF-1α and HIF-2α protein accumulation

aflibercept: FDA-approved anti-VEGF therapy for DME and PDR [reference compound]
OIR NV% (OIR mice; 100ng i.v., individual values): 10.6252% and 10.4463% and 8.931% and 10.009% and 8.751% and 10.316%
OIR NV% (OIR mice; 200ng i.v., individual values): 6.75% and 9.52% and 8.9161% and 6.123% and 11.2235% and 10.084%
OIR NV% (OIR mice; 400ng i.v., individual values): 2.501% and 5.995% and 9.1174% and 1.799% and 6.421% and 2.903%

CC(C)C[C@H](NC(=O)[C@H](Cc1ccccc1)NC(=O)c1cnccn1)B(O)O [bortezomib, reference compound]
effect of pretreatment on 32-134D inhibition of HIF-1α accumulation (HIF-1α): corroborated

C[C@H]1O[C@@H](O[C@H]2[C@@H](O)C[C@H](O[C@H]3[C@@H](O)C[C@H](O[C@H]4CC[C@@]5(C)[C@H](CC[C@@H]6[C@@H]5C[C@@H](O)[C@]5(C)[C@@H](C7=CC(=O)OC7)CC[C@]65O)C4)O[C@@H]3C)O[C@@H]2C)C[C@H](O)[C@@H]1O [digoxin, reference compound]
neovascular area (%) (OIR mice; OIR mice at P17, single i.p. digoxin 2 mg/kg at P12, individual values, Figure 2A): 0.786% and 0.8973% and 1.637% and 0.108% and 0.7093% and 1.719%
retinal NV in the OIR model (in words) (OIR mice; digoxin 2 mg/kg single i.p. at P12, read at P17): prevented retinal NV
Vegfa mRNA ([1]; OIR mice P17, Digoxin i.p. 2mg/kg at P12, NON-OIR about 1, replicates, Figure 2B, 2 mg/kg): 4.361 and 3.814 and 4.0024
Angpt2 mRNA [1, 4]: 1.359 and 1.263 and 1.386
Angptl4 mRNA [1, 4]: 1.389 and 1.31 and 1.599
Pdgfb mRNA [1, 4]: 3.611 and 3.067 and 2.999
Ptprb mRNA [1, 4]: 0.8633 and 0.7662 and 0.7639
Serpine1 mRNA [1, 4]: 13.6912 and 13.3012 and 10.8019
expression of VEGF in OIR mice (in words) [1, 5]: only modestly inhibiting the expression of VEGF
expression of other vasoactive genes in OIR mice (in words) [1, 5]: modest reduction
Angptl4 mRNA [2, 6]: 0.6214 and 1.778 and 1.462
Vegfa mRNA [2, 6]: 0.79 and 0.8827 and 0.5987
Vegf and Angptl4 mRNA expression in STZ mice (in words) ([2]; digoxin treatment): decrease in Vegf and Angptl4 mRNA expression to levels similar to those in nondiabetic mice
vascular permeability in STZ mice (in words) [3]: decreased vascular permeability
